Experimental data: patent US20250320462A1, “METHODS AND APPARATUSES FOR TESTING HEPATOCYTE TOXICITY USING MICROORGANOSPHERES” (XILIS, INC., priority 2022, published 2025)
Where two headings read alike, the source gives them in different places.

How the values were obtained:
HepatoMOS (PHHs) = assay: HepatoMOS-based DILI assay (CTG viability, live/dead staining); format: cell-based, human; conditions: for sensitivity of HepatoMOS-based versus spheroid-based DILI assay: indicated by lower IC50 values and large safety margins; for IC50: Homo sapiens
Protocol: Frozen human hepatocytes from Lonza were plated at 30,000 cells per well and allowed to establish in plating media. On day 2 plating media was removed and replaced with maintenance media and cultured for 1 day. On the third day, media was replaced with treatment media and the cells were treated for 72 hours. Prior to harvest HepatoMOSs were treated with CTG reagent to monitor viability.
100 cells/droplet was used in this experiment, the cell viabilities were determined by Celltiter Glo 3D.
(§1) Cell viability assay: The cell viabilities of PHHs in 2D monolayer culture or HepatoMOS culture were measured by CellTiter-Glo® 3D Cell Viability Assay (Promega). For the HepatoMOS viability measurement, we also applied the combination of Calcein AM and EtH staining in addition to CTG assay as previously reported.
(§2) DILI assessment in 2D PHHs and HepatoMOS: For the DILI assessment in the 2D monolayer of PHH cultures, PHHs were seeded at the cell density of 20,000 live cells/well in the collagen-coated 96-well plates. After 24h of culturing, the PHHs were exposed to DILI compounds at different concentrations. The cell viabilities of PHHs were then measured by using CTG assay and the DILI effects were assessed by the changes of CTG reading. For the DILI assessment in HepatoMOS culture, the HepatoMOS were encapsulated at 100 cells/droplet and cultured at HCM or InSphero media for 4 days. Then the HepatoMOS were dispensed into 96 well plates and followed by the drug treatment.

HepG2 = conditions: values above 199 show no toxicity; read-out: Typical 2D HepG2 Monolayer Cell Health IC50; cited from earlier work
3D Hepatocyte Spheroid = conditions: values above 199 show no toxicity; read-out: 3D Hepatocyte Spheroid pIC50 (converted); cited from earlier work
tumor MOSs = assay: Drug screen on MOSs generated from a patient tumor biopsy; format: cell-based
Protocol: (§3) In a similar set of experiments, MOSs were generated from biopsy material (FIG. 23A), and a drug effect screen was performed using the resulting MOSs. […] Thus, the MOSs correlated strongly with patient response to the standard of care drugs. In this case, the patient endured six months of side effects and toxicities that may have been avoided by the predicted response from the MOSs, indicating (within 7-10 days from the biopsy) that the tumor would not respond to these drugs.
In this example, a drug screen using the Patient-Derived MOSs was run by dosing a plurality of replicates for each of a plurality of (27) drugs. A single tumor biopsy was used to generate a plurality of MOSs in large quantities extremely fast (e.g., within less than two weeks) and these MOSs were tested against the panel of drug formulations (e.g., 27 formulations are shown). This testing was done in parallel and could be automatically quantified (e.g., by optical detection and quantification).

traditional cell line = assay: Traditional cell line drug screen; format: cell-based; conditions: all dose ranges examined
Excerpt: As mentioned above, the MOSs and methods of using them to screen for drug compositions may be used to accurately predict the response of a patient tumor to one or more drug therapies. […] For example, in FIG. 22A-22D, the MOSs, but not a cell line, was able to correlate with patient response.

tumor = assay: Actual patient tumor response to treatment; conditions: in vivo
Protocol: as §3

mouse liver MOSs = assay: Toxicity assay using mouse liver MOSs; format: cell-based; conditions: 10 mM
human liver MOSs = assay: Toxicity assay using human liver MOSs; format: cell-based; conditions: 10 mM
Excerpt: Similarly, FIGS. 34A-34B also show toxicity assays using human liver MOSs.

spheroid PHHs = assay: Spheroid-based DILI assay; format: cell-based, human
Protocol: Culture of PHHs and HepatoMOS generation: The pooled donors and the individual donor of PHHs were purchased from BioIVT (www.bioivt.com). The PHHs used to compare the DILI predictivities of the spheroid method vs. HepatoMOS methods were accompanied with the InSphero Kit. Four different serum-free media options (InSphero, HCM™ Hepatocyte Culture Medium BulletKit™, BioIVT INVITROGRO HI Medium, and William E) were selected for the initial HepatoMOS culture in this study. PHHs were cultured either as a 2D monolayer on collagen-coated 96-well plates or encapsulated in MOS to create HepatoMOS at different cell densities. For the comparison of HepatoMOS with the dome culture methods, matched cell densities used for the dome and making HepatoMOS were used.
Given the high fidelity of cell viability, maintenance, and hepatic-specific function preservation in HepatoMOS culture, the potential application in predicting DILI effects during drug development was evaluated. The sensitivities and specificities of HepatoMOS were compared with two widely used approaches for DILI detection: i) 2D culture; and ii) spheroid PHHs.

[1] = system: 2D monolayer of PHH cultures; assay: 2D-based DILI assay; format: cell-based, human
Protocol: as §1, §2

[2] = combined with immunotherapies; cited from earlier work

Cc1c(C)c2c(c(C)c1O)CCC(C)(COc1ccc(CC3SC(=O)NC3=O)cc1)O2 (centres unmarked) [Troglitazone]
sensitivity of HepatoMOS-based versus spheroid-based DILI assay (HepatoMOS (PHHs)): better sensitivities

COc1ccccc1Oc1c(NS(=O)(=O)c2ccc(C(C)(C)C)cc2)nc(-c2ncccn2)nc1OCCO [Bosentan]
IC50 (HepG2): > 200 µM
IC50 (3D Hepatocyte Spheroid): 166 µM

O=C1[O][Pt]2([NH][C@@H]3CCCC[C@H]3[NH]2)[O]C1=O [Oxaliplatin]
cell survival of tumor MOSs (tumor MOSs; listed as Oxalipalatin): no change in the percent survival
cell survival of tumor MOSs (tumor MOSs; listed as Oxalipalitin): significant decreases in cell survival
effect on traditional cell line (traditional cell line): no effect
patient tumor response to treatment (tumor; listed as Oxalipalatin): no response
patient tumor response to treatment (tumor; listed as Oxalipalitin): responded to treatment

CS(=O)(=O)CCNCc1ccc(-c2ccc3ncnc(Nc4ccc(OCc5cccc(F)c5)c(Cl)c4)c3c2)o1 [Lapatinib]
IC50 (HepG2): > 200 µM
IC50 (3D Hepatocyte Spheroid): 1.32 µM

O=C(O)Cc1ccccc1Nc1c(Cl)cccc1Cl [Diclofenac]
IC50 (HepG2): > 200 µM
IC50 (3D Hepatocyte Spheroid): 66.1 µM

Cc1ccc(C(=O)c2cc(O)c(O)c([N+](=O)[O-])c2)cc1 [Tolcapone]
sensitivity of HepatoMOS-based versus spheroid-based DILI assay (HepatoMOS (PHHs)): better sensitivities
IC50 (HepG2): 91.2 µM
IC50 (3D Hepatocyte Spheroid): 9.99 µM

CCc1c2c(nc3ccc(OC(=O)N4CCC(N5CCCCC5)CC4)cc13)-c1cc3c(c(=O)n1C2)COC(=O)[C@]3(O)CC [Irinotecan]
cell survival of tumor MOSs (tumor MOSs): lack of effect
patient tumor response to treatment (tumor): no response

O=c1[nH]c(=O)n([C@@H]2O[C@H](CO)[C@@H](O)[C@@H]2F)cc1I [Fialuridine]
IC50 (HepG2): > 200 µM
IC50 (3D Hepatocyte Spheroid): 1.32 µM

CC(=O)Nc1ccc(O)cc1 [acetaminophen]
tissue in mouse liver MOSs versus control (mouse liver MOSs): smaller and contains many dead cells
tissue in human liver MOSs versus control (human liver MOSs): significant increase atypical tissue structures (arrows) and debris

C=CC(=O)N1CCN(c2nc(=O)n(-c3c(C)ccnc3C(C)C)c3nc(-c4c(O)cccc4F)c(F)cc23)[C@@H](C)C1 [AMG-510]
IC50 (HepatoMOS (PHHs); 10 donor batch): < 10 µM
IC50 (HepatoMOS (PHHs); single donor): < 3.7 µM
DILI concern in spheroid-based DILI assay (spheroid PHHs): failed to capture any DILI concern
DILI concern in 2D-based DILI assay [1]: failed to capture any DILI concern
liver side effects in Phase 1 clinical trial [2]: higher incidence of severe liver side effects
